Reference: US7947854B2, “Bis-cationic compounds and use thereof” (The University of Sydney, priority 2003, dated 2011)
Where “and” joins values, the source holds several entries; their conditions need not be identical. Equal entries are not always repeated. Marks after values point to notes of the source that are not given here.

Experiments:
[1] = system: C. neoformans strain H99 phospholipases; experiment: Inhibition of C. neoformans strain H99 phospholipases (all enzymes and activities); assay type: biochemical, Cryptococcus neoformans H99
Protocol: Radiometric assay method for phospholipases. Enzyme activities were measured as described previously in a final volume of 125 μL at 37° C. For the determination of secreted PLB activity, carrier dipalmitoyl phosphatidylcholine (DPPC, final concentration 800 μM) and 1,2-di[1-^14C] palmitoyl phosphatidylcholine (20,000 dpm) were dried under nitrogen and suspended in 125 mM imidazole acetate buffer (assay buffer, pH 4.0) by sonication using a Branson 450 sonifier. The reaction time was 22 min, using 1 μg total protein and PLB activity was determined by the rate of decrease of the radiolabelled PC substrate, with appearance of the label in free fatty acid. […] These activities were measured by the appearance of radiolabel from PC in Lyso PC, diacylglycerol and phosphatidic acid, respectively.
Secreted LPL and LPTA activities were measured simultaneously in a reaction mixture containing 1-[^14C]palmitoyl lyso-PC (25,000 dpm) and carrier lyso-PC (final concentration 200 μM) in assay buffer. The reaction time was […] with 1 μg of total protein and LPL activity was measured by the rate of loss of 1-[^14C]palmitoyl lyso-PC with release of radiolabelled fatty acids. […]
All reactions were terminated by adding 0.5 mL of chloroform:methanol (2:1 v/v). […] 37:911-917, separated by TLC and quantified as previously described. […]

[2] = system: cytosolic phospholipase B (LPL/LPTA activities); experiment: Radiometric assay, cytosolic LPL/LPTA activities; assay type: biochemical, Cryptococcus neoformans H99; settings: pH 4
Protocol: Fungal isolates and media. […] Isolate H99 was kindly supplied by Dr. Gary Cox (Duke University Medical Center, Durham, N.C., USA), and subcultured onto Sabouraud dextrose agar (SDA) at 30° C.
Cellular disruption to prepare membrane and cytosolic fractions. The cell pellet from the preparation of the supernatant, above, was also frozen at −70° C. After washing twice with imidazole buffer, it was disrupted in the presence of a protease inhibitor cocktail (P 8215 for fungal and yeast cells; 4-(2-aminoethyl)benzenesulfonyl fluoride hydrochloride, 100 mM, 1,10-phenanthroline, 500 mM, pepstatin A, 2.2 mM, E-64, 1.4 mM; Sigma) in a MiniBeadbeater-8 Cell Disrupter (MBB-8; Daintree Scientific, Tasmania, Australia) for three cycles of 1 min, alternating with a 1 min cooling period on ice. The homogenate was centrifuged at 14,000 g for 15 min to obtain the membrane (pellet) and the cytosolic (supernatant) fractions.
Secreted LPL and LPTA activities were measured simultaneously in a reaction mixture containing 1-[^14C]palmitoyl lyso-PC (25,000 dpm) and carrier lyso-PC (final concentration 200 μM) in assay buffer. The reaction time was […] with 1 μg of total protein and LPL activity was measured by the rate of loss of 1-[^14C]palmitoyl lyso-PC with release of radiolabelled fatty acids. LPTA activity was estimated from the rate of formation of radiolabelled PC.
All reactions were terminated by adding 0.5 mL of chloroform:methanol (2:1 v/v). The reaction products were extracted by the method as disclosed in Bligh, E. C. and W. J. Dyer. 1959 ‘A rapid method of total lipid extraction and purification.’ Can. J. Biochem. Physiol. 37:911-917, separated by TLC and quantified as previously described. In the case of PLC activity, the TLC plates were developed in petroleum ether (BP 60-80° C.): diethyl ether: acetic acid (90:15:1, v/v/v) instead of chloroform:methanol:water (65:25:4, v/v/v).
All experiments were carried out in duplicate or triplicate. The effects of pH on the various phospholipase activities were measured using 50 mM final concentration of imidazole-acetate buffer (pH range 3-5), MES buffer (pH range 6-8) and glycine buffer (pH 9-10). Controls for non-enzymic breakdown of substrates were included at all pH values. Cations, Triton X-100 and metal chelators were made up as stock solutions in water and diluted to the final concentration in the appropriate assay buffer.
Preparation of inhibitors and use in assays. The following compounds were tested (for structures, see FIG. 2): compound 1, 1,12-bis(tributylphosphonium)dodecane dibromide (Fluka AG, Buchs, Switzerland); compound 2, 1,10-bis(tributylammonium)-decane dibromide; compound 3, 1,12-bis(tributylammonium)do-decane dibromide (both synthesised in-house); compound 4, 1,10-bis(trimethylammonium)decane dibromide [“decamethonium”] (Sigma, St. Louis Mo., USA). All compounds were prepared as stock solutions of 700 μM in assay buffer containing 5 mM EDTA, which was then diluted serially with buffer to obtain solutions of 70, 7, 0.7 and 0.07 μM. In each assay, 45 μL of these solutions was used, and the final volume of 125 μL was made up of substrate, enzyme and buffer. The radiometric assay was carried out as above. Inhibition was calculated as the percent of substrates (DPPC or Lyso-PC) remaining in the case of PLB and LPL activities, or of DPPC produced, in the case of the LPTA activity. The amounts converted, or produced, in the inhibitor-free control were normalised to 100%, and the inhibition calculated against it. All assays were done in triplicate.
Under these conditions only PLB, LPL and LPTA activities (both secreted and cell-associated) were measured. Initially, compounds deemed to be potential inhibitors were assayed at 25 and 250 μM.

Escherichia coli 25922 = experiment: In vitro antibacterial activity, NCCLS M7-A6; assay type: cell-based
Protocol: (§1) Two bis-cationic compounds were tested for antibacterial activity. The assay used was that published by the National Committee for Clinical Laboratory Standards. 2003. Methods for Dilution Antimicrobial Susceptibility Tests for Bacteria That Grow Aerobically: Approved Standard—Sixth Edition. NCCLS document M7-A6. Villanova, Pa., USA.

[3] = system: MRSA (methicillin resistant S. aureus); experiment: In vitro antibacterial activity, NCCLS M7-A6; assay type: cell-based; settings: Staphylococcus aureus, read-out: MIC MRSA (methicillin resistant S. aureus)
Protocol: as §1

[4] = system: VRE (Vancomycin resistant Enterococcus); experiment: In vitro antibacterial activity, NCCLS M7-A6; assay type: cell-based
Protocol: as §1

[5] = system: Staphylococcus aureus 25923; experiment: In vitro antibacterial activity, NCCLS M7-A6; assay type: cell-based
Protocol: as §1

[6] = system: Pseudomonas ariginosa 122; experiment: In vitro antibacterial activity, NCCLS M7-A6; assay type: cell-based
Protocol: as §1

[7] = system: Streptococcus pneumonia 49619; experiment: In vitro antibacterial activity, NCCLS M7-A6; assay type: cell-based; settings: Streptococcus pneumoniae
Protocol: as §1

For `CCCC[N+](CCCC)(CCCC)CCCCCCCCCCCC[N+](CCCC)(CCCC)CCCC` [Compound 3, 1,12-bis(tributylammonium)do-decane dibromide], the “enzyme (phospholipase) inhibition, in words” value [1] was “inhibits”.

`CCCC[P+](CCCC)(CCCC)CCCCCCCCCCCC[P+](CCCC)(CCCC)CCCC` [Compound 1, 1,12-bis(tributylphosphonium)dodecane dibromide] was tested, and the “% Inhibition LPL, Cytosolic Enzyme” value ([2]; 2.5 μM) was 0%, the “% Inhibition LPTA, Cytosolic Enzyme” value ([2]; 2.5 μM) was 0% and the “% Inhibition LPL, Cytosolic Enzyme” value ([2]; 25 μM) was 0%. For the same molecule, the “% Inhibition LPTA, Cytosolic Enzyme” value ([2]; 25 μM) was 0%, the “% Inhibition LPL, Cytosolic Enzyme” value ([2]; 250 μM) was 12.7* % and the “% Inhibition LPTA, Cytosolic Enzyme” value ([2]; 250 μM) was 0%.

`CCCC[N+](CCCC)(CCCC)CCCCCCCCCCCC[N+](CCCC)(CCCC)CCCC` [1,12-Bis-(tributylammonium)dodecane dichloride] was tested, and the MIC (Escherichia coli 25922) was 13.4 µg/mL and 22 µM, the MIC [3] was 3.3 µg/mL and 5.5 µM and the MIC [4] was 1.6 µg/mL and 2.7 µM. The MIC [5] was 3.3 µg/mL and 5.5 µM, the MIC [6] was 48 µg/mL and 80 µM and the MIC [7] was 0.73 µg/mL and 1.2 µM.
